According to patent US11166931B2, “Induction of arteriogenesis with an NO (nitric oxide) donor” (G. Pohl-Boskamp GmbH & Co. KG, priority 2012, dated 2021):
Entries after “also recorded” stand apart in the source; their conditions may differ.

Tests used:
Sprague-Dawley rats [1] = test: Infarct size by TTC staining after final permanent occlusion; type: in vivo, rat
Sprague-Dawley rats [2] = test: Ventricular arrhythmias during FPO, Lown classification and VPB score; settings: rat, in vivo
Sprague-Dawley rats [3] = test: ST segment elevation (ECG) during final permanent LAD occlusion (FPO), rat repetitive ischemia protocol (RIP) arteriogenesis model; type: in vivo
arteriogenesis = settings: nitroglycerin: administered continuously; cited from earlier work

CC(=O)Oc1ccccc1C(=O)O [ASA+NTG-PLACEBO]
Infarct size (percentage of the area of the left ventricle) (Sprague-Dawley rats [1]; rat, in vivo): 13.92 ±1.71% | VPB-Score (Sprague-Dawley rats [2]): 5.50 | rats with class IIIa arrhythmias (Lown) during FPO (Sprague-Dawley rats [2]): 16.7% | rats with class IVb arrhythmias (Lown) during FPO (Sprague-Dawley rats [2]): 83.3%

O=[N+]([O-])OCC(CO[N+](=O)[O-])O[N+](=O)[O-] [NTG, nitroglycerin]
ST elevation / ECG parameters during FPO compared to controls (in words) (Sprague-Dawley rats [3]; rat, in vivo): significantly attenuated ST elevation | infarct volume decreased compared to the control group (Sprague-Dawley rats [1]; rat, in vivo): more than 50% | effect on arteriogenesis described in the art (in words) (arteriogenesis): not able to induce angiogenesis (neovascularisation) or arteriogenesis | arrhythmias during FPO compared to controls (in words) (Sprague-Dawley rats [2]): decreased serious arrhythmias

CC(=O)Oc1ccccc1C(=O)O [ASA, acetyl salicylic acid]
ST elevation / ECG parameters during FPO compared to controls (in words) (Sprague-Dawley rats [3]; 5 DAYS RIP): impairment of ECG parameters | infarct size / infarct volume compared to other groups (in words) (Sprague-Dawley rats [1]; 5 DAYS RIP): increase of infarct volumes | effect on arteriogenesis described in the art (in words) (arteriogenesis): inhibitor of arteriogenesis

O=[N+]([O-])O[C@H]1CO[C@H]2[C@@H]1OC[C@H]2O[N+](=O)[O-] [ISDN, isosorbide dinitrate]
ST elevation / ECG parameters during FPO compared to controls (in words) (Sprague-Dawley rats [3]; rat, in vivo): non-significantly decreased; also recorded: decreases in ST elevation | infarct size / infarct volume compared to other groups (in words) (Sprague-Dawley rats [1]; rat, in vivo): reduced infarct volumes | arrhythmias during FPO compared to controls (in words) (Sprague-Dawley rats [2]): less arrhythmias
